Data: the NIST ThermoML archive (doi:10.1021/je200195q)
± gives the expanded uncertainty stated by the source.

Assay: activity coefficient (dimensionless); of the first substance listed, at infinite dilution; xn = mol fraction of the nth substance listed
Conditions: 101 kPa, Liquid, Chromatography, x1 = 0

Row | Compound | activity coefficient (312.8 K) | activity coefficient (332.85 K) | activity coefficient (354.65 K) | activity coefficient (323.1 K) | activity coefficient (333.15 K) | activity coefficient (343.15 K) | also measured
1 | CCCCCCCCCC [decane] + CCCCCC[n+]1ccn(C)c1.FC(F)(F)C(F)(F)[P-](F)(F)(F)(C(F)(F)C(F)(F)F)C(F)(F)C(F)(F)F | 22.7 ± 1.6 | 19 ± 1.3 | 15.3 ± 1 |  |  |  | 
2 | Cc1ccccc1 [toluene] + CCCCCC[n+]1ccn(C)c1.FC(F)(F)C(F)(F)[P-](F)(F)(F)(C(F)(F)C(F)(F)F)C(F)(F)C(F)(F)F | 0.674 ± 0.046 | 0.727 ± 0.048 | 0.753 ± 0.05 |  |  |  | 
3 | c1ccsc1 [thiophene] + CCCCCCCCCCn1cc[n+](CCCCCCCCCC)c1C.O=S(=O)([N-]S(=O)(=O)C(F)(F)F)C(F)(F)F |  |  |  | 0.422 ± 0.035 | 0.423 ± 0.035 | 0.424 ± 0.035 | 
4 | CCO [ethanol] + CCCCCCCCCCn1cc[n+](CCCCCCCCCC)c1C.O=S(=O)([N-]S(=O)(=O)C(F)(F)F)C(F)(F)F |  |  |  | 1.27 ± 0.082 | 1.15 ± 0.073 | 1.04 ± 0.065 | 
5 | CC(C)OC(C)C [diisopropyl ether] + CCCCn1cc[n+](C)c1.O=S(=O)([N-]S(=O)(=O)C(F)(F)C(F)(F)F)C(F)(F)C(F)(F)F |  |  |  |  |  |  | activity coefficient (322.55 K): 3.46 ± 0.24; activity coefficient (342.75 K): 3.46 ± 0.23; activity coefficient (362.65 K): 3.43 ± 0.23
6 | CCCCCCCCCCCCCC [tetradecane] + CCn1cc[n+](C)c1.CS(=O)(=O)[O-] |  |  |  |  |  |  | activity coefficient (312.55 K): 4070 ± 280; activity coefficient (322.45 K): 4000 ± 280; activity coefficient (332.45 K): 3830 ± 260
7 | CC1CCCCC1 [methylcyclohexane] + CCCCCC[n+]1ccn(C)c1.FC(F)(F)C(F)(F)[P-](F)(F)(F)(C(F)(F)C(F)(F)F)C(F)(F)C(F)(F)F | 5.89 ± 0.4 | 5.23 ± 0.36 | 4.49 ± 0.31 |  |  |  | 
8 | c1ccccc1 [benzene] + CCCCCCCCCCn1cc[n+](CCCCCCCCCC)c1C.O=S(=O)([N-]S(=O)(=O)C(F)(F)F)C(F)(F)F |  |  |  | 0.429 ± 0.035 | 0.431 ± 0.035 | 0.434 ± 0.035 | 
9 | ClC(Cl)(Cl)Cl [tetrachloromethane] + CCCCCC[n+]1ccn(C)c1.FC(F)(F)C(F)(F)[P-](F)(F)(F)(C(F)(F)C(F)(F)F)C(F)(F)C(F)(F)F | 2.19 ± 0.15 | 2.08 ± 0.14 | 1.94 ± 0.13 |  |  |  | 
10 | CCc1ccccc1 [ethylbenzene] + CCCCCCCCCCn1cc[n+](CCCCCCCCCC)c1C.O=S(=O)([N-]S(=O)(=O)C(F)(F)F)C(F)(F)F |  |  |  | 0.652 ± 0.045 | 0.662 ± 0.045 | 0.689 ± 0.046 | 
11 | CCCC=O [butanal] + CCn1cc[n+](C)c1.CS(=O)(=O)[O-] |  |  |  |  |  |  | activity coefficient (312.55 K): 4.87 ± 0.33; activity coefficient (322.45 K): 4.95 ± 0.34; activity coefficient (332.45 K): 3.51 ± 0.24
12 | CCC(C)=O [butanone] + CCCCn1cc[n+](C)c1.O=S(=O)([N-]S(=O)(=O)C(F)(F)C(F)(F)F)C(F)(F)C(F)(F)F |  |  |  |  |  |  | activity coefficient (322.55 K): 0.453 ± 0.036; activity coefficient (342.75 K): 0.389 ± 0.034; activity coefficient (362.65 K): 0.351 ± 0.032
13 | CCCC(C)=O [pentan-2-one] + CCCCCC[n+]1ccn(C)c1.FC(F)(F)C(F)(F)[P-](F)(F)(F)(C(F)(F)C(F)(F)F)C(F)(F)C(F)(F)F | 0.271 ± 0.03 | 0.298 ± 0.031 | 0.311 ± 0.031 |  |  |  | 
14 | CCCCCCCCCCCCC [tridecane] + CCn1cc[n+](C)c1.CS(=O)(=O)[O-] |  |  |  |  |  |  | activity coefficient (312.55 K): 3380 ± 230; activity coefficient (322.45 K): 3280 ± 230; activity coefficient (332.45 K): 3070 ± 210
15 | CC(C)CO [2-methyl-1-propanol] + CCCCn1cc[n+](C)c1.O=S(=O)([N-]S(=O)(=O)C(F)(F)C(F)(F)F)C(F)(F)C(F)(F)F |  |  |  |  |  |  | activity coefficient (322.55 K): 2.26 ± 0.15; activity coefficient (342.75 K): 1.84 ± 0.12; activity coefficient (362.65 K): 1.57 ± 0.1
16 | Cc1ccccc1C [1,2-dimethylbenzene] + CCCCCCCCCCn1cc[n+](CCCCCCCCCC)c1C.O=S(=O)([N-]S(=O)(=O)C(F)(F)F)C(F)(F)F |  |  |  | 0.626 ± 0.043 | 0.616 ± 0.043 | 0.603 ± 0.042 | 
17 | C1CCCCCC1 [cycloheptane] + CCCCn1cc[n+](C)c1.O=S(=O)([N-]S(=O)(=O)C(F)(F)C(F)(F)F)C(F)(F)C(F)(F)F |  |  |  |  |  |  | activity coefficient (322.55 K): 19.8 ± 1.4; activity coefficient (342.75 K): 35.2 ± 2.4; activity coefficient (362.65 K): 56.5 ± 3.9
18 | CCOCC [diethyl ether] + CCCCCC[n+]1ccn(C)c1.FC(F)(F)C(F)(F)[P-](F)(F)(F)(C(F)(F)C(F)(F)F)C(F)(F)C(F)(F)F | 0.837 ± 0.054 | 0.866 ± 0.055 | 0.897 ± 0.057 |  |  |  | 
19 | CC(C)OC(C)C [diisopropyl ether] + CCCCCCCCCCn1cc[n+](CCCCCCCCCC)c1C.O=S(=O)([N-]S(=O)(=O)C(F)(F)F)C(F)(F)F |  |  |  | 1.12 ± 0.071 | 1.23 ± 0.079 | 1.23 ± 0.079 | 
20 | CCOCC [diethyl ether] + CCn1cc[n+](C)c1.CS(=O)(=O)[O-] |  |  |  |  |  |  | activity coefficient (312.55 K): 21.8 ± 1.5; activity coefficient (322.45 K): 20.4 ± 1.4; activity coefficient (332.45 K): 18 ± 1.2
